Assay results published in ChEMBL document CHEMBL1139678, “Design and synthesis of novel N-sulfonyl-2-indole carboxamides as potent PPAR-gamma binding agents with potential application to the treatment of osteoporosis” (Bioorg Med Chem Lett, 2006).
In brackets after ≈: the same amount, converted by molar mass. Activity calls are given as the source filed them. No cut-off for these calls is given here.

What was measured:
Osteoblast = experiment: Induction of osteoblast differentiation assessed as stimulation of alkaline phosphatase in MC3T3-E1 cells; type: functional, cell-based; settings: Mus musculus
[1] = biological target: T1, Peroxisome proliferator-activated receptor gamma (Homo sapiens, UniProt P37231); experiment: Displacement of Fluormone from PPAR gamma
T1 sequence (P37231 whole entry): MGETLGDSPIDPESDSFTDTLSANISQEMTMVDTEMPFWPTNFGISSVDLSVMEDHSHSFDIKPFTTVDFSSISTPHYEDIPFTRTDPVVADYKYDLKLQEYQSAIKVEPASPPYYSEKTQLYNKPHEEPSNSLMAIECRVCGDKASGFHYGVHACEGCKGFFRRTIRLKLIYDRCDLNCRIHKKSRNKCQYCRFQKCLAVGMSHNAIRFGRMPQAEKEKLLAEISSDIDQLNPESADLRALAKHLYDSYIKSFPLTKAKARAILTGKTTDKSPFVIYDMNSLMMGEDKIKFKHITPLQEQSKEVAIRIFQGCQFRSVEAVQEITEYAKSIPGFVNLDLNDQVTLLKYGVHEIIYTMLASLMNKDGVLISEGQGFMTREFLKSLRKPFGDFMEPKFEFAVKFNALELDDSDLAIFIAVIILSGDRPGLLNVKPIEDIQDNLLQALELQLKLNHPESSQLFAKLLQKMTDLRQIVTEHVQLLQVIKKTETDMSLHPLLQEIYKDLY

[2] = Solubility of the compound; type: physicochemical

COC(=O)c1ccccc1S(=O)(=O)NC(=O)c1c(-c2ccc(OC)cc2)c2ccccc2n1Cc1cccc(C(F)(F)F)c1
EC50 (Osteoblast): 1000 nM
IC50 [1]: 1 nM

CN(CCOc1ccc(CC2SC(=O)NC2=O)cc1)c1ccccn1 (configuration not stated)
Activity (Osteoblast): inactive

COc1ccc(-c2c(C(=O)NS(C)(=O)=O)n(Cc3cccc(C(F)(F)F)c3)c3ccccc23)cc1
IC50 [1]: 2 nM

COc1ccc(-c2c(C(=O)NS(=O)(=O)c3ccccc3)n(Cc3cccc(C(F)(F)F)c3)c3ccccc23)cc1
EC50 (Osteoblast): 100 nM
solubility [2]: 5 µg/mL (≈ 8.86 µM)

O=C(NS(=O)(=O)c1ccc(Cl)cc1)c1cc2ccccc2n1Cc1cccc(C(F)(F)F)c1
EC50 (Osteoblast): 1000 nM
IC50 [1]: 280 nM

O=C(NS(=O)(=O)c1ccc(Cl)s1)c1cc2ccccc2n1Cc1cccc(C(F)(F)F)c1
IC50 [1]: 80 nM

O=C(NS(=O)(=O)c1cccc(C(F)(F)F)c1)c1cc2cc(OCc3ccccc3)ccc2n1Cc1cccc(C(F)(F)F)c1
IC50 [1]: 770 nM

O=C(NS(=O)(=O)c1cccc(C(F)(F)F)c1)c1cc2cc(Cl)ccc2n1Cc1cccc(C(F)(F)F)c1
IC50 [1]: 330 nM

COc1ccc(-c2c(C(=O)NS(=O)(=O)c3ccc(F)cc3)n(Cc3cccc(C(F)(F)F)c3)c3ccccc23)cc1
IC50 [1]: 7 nM

O=C(NS(=O)(=O)c1cccc(C(F)(F)F)c1)c1cc2ccccc2n1Cc1cccc(OCc2ccccc2)c1
IC50 [1]: 50 nM

Cc1ccccc1S(=O)(=O)NC(=O)c1cc2ccccc2n1Cc1cccc(C(F)(F)F)c1
IC50 [1]: 180 nM

COc1cccc(Cn2c(C(=O)NS(=O)(=O)c3cccc(C(F)(F)F)c3)cc3ccccc32)c1
IC50 [1]: 140 nM

O=C(NS(=O)(=O)c1ccccc1)c1cc2ccccc2n1Cc1cccc(C(F)(F)F)c1
IC50 [1]: 290 nM

O=C(NS(=O)(=O)c1cccc(C(F)(F)F)c1)c1cc2ccccc2n1Cc1ccccc1
IC50 [1]: 280 nM

CCn1c(C(=O)NS(=O)(=O)c2cccc(C(F)(F)F)c2)cc2ccccc21
IC50 [1]: 2440 nM

O=C(NS(=O)(=O)c1cccc(C(F)(F)F)c1)c1cc2ccccc2n1Cc1cc(Cl)ccc1Cl
IC50 [1]: 380 nM

O=C(NS(=O)(=O)c1cccc(C(F)(F)F)c1)c1cc2cc(O)ccc2n1Cc1cccc(C(F)(F)F)c1
IC50 [1]: 540 nM

O=C(NS(=O)(=O)c1ccc(F)cc1)c1cc2ccccc2n1Cc1cccc(C(F)(F)F)c1
IC50 [1]: 720 nM

O=C(NS(=O)(=O)c1ccc2ccccc2c1)c1cc2ccccc2n1Cc1cccc(C(F)(F)F)c1
IC50 [1]: 90 nM

O=C(NS(=O)(=O)c1cccc(C(F)(F)F)c1)c1cc2ccccc2n1Cc1cccc(OC(F)(F)F)c1
IC50 [1]: 90 nM

CC(C)(C)c1ccc(Cn2c(C(=O)NS(=O)(=O)c3cccc(C(F)(F)F)c3)cc3ccccc32)cc1
IC50 [1]: 330 nM

O=C(NS(=O)(=O)c1cccc(C(F)(F)F)c1)c1cc2ccccc2n1C(=O)c1cccc(C(F)(F)F)c1
IC50 [1]: 9400 nM

COc1ccc(-c2c(C(=O)NS(=O)(=O)c3cccc(C(F)(F)F)c3)n(Cc3cccc(C(F)(F)F)c3)c3ccccc23)cc1
IC50 [1]: 60 nM

O=C(NS(=O)(=O)c1ccccc1C(F)(F)F)c1cc2ccccc2n1Cc1cccc(C(F)(F)F)c1
IC50 [1]: 80 nM

CS(=O)(=O)NC(=O)c1cc2ccccc2n1Cc1cccc(C(F)(F)F)c1
IC50 [1]: 680 nM

COc1ccc(-c2c(C(=O)NS(=O)(=O)c3ccccc3C)n(Cc3cccc(C(F)(F)F)c3)c3ccccc23)cc1
IC50 [1]: 7 nM

O=C(NS(=O)(=O)c1cccc(C(F)(F)F)c1)c1cc2ccccc2n1Cc1ccc(C(F)(F)F)cc1
IC50 [1]: 400 nM

O=C(NS(=O)(=O)c1cccc(C(F)(F)F)c1)c1cc2ccccc2n1Cc1cccc(C(F)(F)F)c1
IC50 [1]: 80 nM

Cc1ccc(S(=O)(=O)NC(=O)c2cc3ccccc3n2Cc2cccc(C(F)(F)F)c2)cc1
IC50 [1]: 290 nM
